We go through 16 molecules from patent US6284914A, “Highly water-soluble metalloproteinase inhibitors” (Fuji Yakuhin Kogyo Kabushiki Kaisha, priority 1995, dated 2001).

Counter-ions that a name gives are not always drawn.

Series [1] can be described thus: Measurement of Solubility in Water. Format: physicochemical. Particulars: distilled water, 20±5° C., 30 min., checked by eye; for solubility at 0.5 h: water. How it is done: A compound of Examples or a comparative compound was added to distilled water and shaken vigorously at 20±5° C. for 30 seconds at 5 min. interval. After 30 min., it was checked by watching with eye whether the compound was dissolved or not.

Another series has as its target T1, stromelysin (MMP-3) (Homo sapiens, UniProt P08254).
T1 construct: endogenous in cells; host or cells: human fibroblast
Kind of series: Assay for Stromelysin Inhibitory Activity (MMP-3). Format: biochemical. The settings on record: fluorescein-labeled casein substrate, 37° C., 2 hours, pH 7.8; read-out: Inhibitory activities for matrix metalloproeinases (MMPs), MMP-3, IC50 value. How it is done:
(§1) Inhibitory activities of the compounds represented by the general formula (I) according to the invention for collagenase (metalloproteinase concerned with a tissue destruction) derived from human fibroblast were tested by the method of Y. Murawaki et al., [Journal of Hepatology, 18, p. 328-334 (1993)], and their inhibitory activities for stromelysin derived from human fibroblast were measured by the method of S. S. Twining et al., [Anal. Biochem., 143, p. 30 (1984)].
Inhibitory activities for stromelysin (MMP-3) of the compounds of Examples and comparative compounds were measured by the method of S. S. Twining et al., [Anal. Biochem., 143, p. 30 (1984)]. The latent prostromelysin was incubated with human plasmin (20 μg/ml) for the activation at 37° C. for 2 hours, and then the incubate was added with diisopropyl fluorophosphate solution (2.8 mg/ml) to stop the reaction. The assay was done by using casein labeled with fluorescein as the substrate. The activated stromelysin was added to a substrate solution (1 mg/ml) in Tris HCl buffer (50 mM, pH 7.8) containing calcium chloride (10 mM). The obtained solution was incubated at37° C. for 2 hours. The enzyme digestion forthesubstrate was stopped by adding 5% trichloroacetic acid. The indigested substrate was sedimented by centrifuging at 3000 g for 20 min. The supernatant was taken and added with Tris HCl buffer (0.5 M, pH 8.5), whereby its intensity of fluorescence was determined by the excitation wavelength (495 nm) and the measured wavelength (520 nm), and the inhibitory activity was obtained. IC50 is a concentration of a compound assayed in the digesting enzyme, whereby the splitting of the substrate was decreased to 50% compared with that attained by the enzyme alone.

Another series concerns the target T2, collagenase (MMP-1) (Homo sapiens, UniProt P03956).
T2 construct: endogenous in cells; host or cells: human fibroblast
T2 sequence (P03956 100-469): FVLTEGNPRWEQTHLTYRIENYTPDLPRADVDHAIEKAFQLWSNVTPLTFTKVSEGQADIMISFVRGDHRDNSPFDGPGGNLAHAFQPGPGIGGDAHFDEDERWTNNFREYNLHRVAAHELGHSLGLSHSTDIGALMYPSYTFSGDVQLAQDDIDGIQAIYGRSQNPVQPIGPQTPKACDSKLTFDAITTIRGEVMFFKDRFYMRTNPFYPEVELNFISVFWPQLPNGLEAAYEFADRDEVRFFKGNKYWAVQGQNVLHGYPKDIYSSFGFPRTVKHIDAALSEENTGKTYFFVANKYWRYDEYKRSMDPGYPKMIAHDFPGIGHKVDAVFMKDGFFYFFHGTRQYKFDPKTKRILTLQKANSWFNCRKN
Description: Assay for Collagenase Inhibitory Activity (MMP-1). Format: biochemical. The settings on record: fluorescein-labeled bovine type I collagen substrate, 35° C., 2 hours, pH 7.5; read-out: Inhibitory activities for matrix metalloproeinases (MMPs), MMP-1, IC50 value. The method, then:
as §1
Inhibitory activities for collagenase (MMP-1) of the compounds of Examples and comparative compounds were measured by the method of Y. Murawaki et al., [Journal of Hepatology, 18, p. 328-334 (1993)]. The latent procollagenase was activated by incubating with mercury aminophenylacetate (2 mM) at 35° C. for 2 hours. The assay was done by using bovine type I collagen labeled with fluorescein as a substrate. The activated collagenase was added to the substrate solution (0.5 mg/ml) in Tris HCl buffer (50 mM, pH 7.5) containing sodium chloride (0.4 M) and calcium chloride (10 mM). The obtained solution was incubated at 35° C. for 2 hours. The enzyme digestion was stopped by the addition of o-phenanthroline (80 mM). The mixture was added with pig spleen elastase solution (25 μg/ml) in the above Tris HCl buffer, and incubated 37° C. for 10 min. The obtained solution was added with 70% ethanol and Tris HCl buffer (170 mM, pH 9.5) containing sodium chloride (0.61 M), whereby the indigested substrate was sedimented by centrifuging at 3000 g for 20 min. The supernatant was taken, and its intensity of fluorescence was determined by the excitation wavelength (495 nm) and the measured wavelength (520 nm), and the inhibitory activity was obtained. IC50 is a concentration of a compound assayed in the digesting enzyme, whereby the splitting of the substrate was decreased to 50% compared with that attained by the enzyme alone.

T1 sequence (P08254 100-477): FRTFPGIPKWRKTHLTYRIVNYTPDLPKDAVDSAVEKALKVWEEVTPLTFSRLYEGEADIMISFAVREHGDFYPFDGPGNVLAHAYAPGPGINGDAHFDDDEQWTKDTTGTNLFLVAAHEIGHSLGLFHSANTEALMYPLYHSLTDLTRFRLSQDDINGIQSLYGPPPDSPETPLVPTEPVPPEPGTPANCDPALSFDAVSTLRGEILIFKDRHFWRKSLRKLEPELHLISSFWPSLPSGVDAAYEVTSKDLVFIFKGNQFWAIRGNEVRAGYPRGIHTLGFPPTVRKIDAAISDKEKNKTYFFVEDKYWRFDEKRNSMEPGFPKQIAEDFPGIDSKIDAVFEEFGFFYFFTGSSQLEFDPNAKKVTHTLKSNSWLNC

As usually defined, the IC50 is the concentration that inhibits the measured activity by half. Molecule `CCCOC[C@H](C(=O)N[C@@H](Cc1ccc(S(=O)(=O)[O-])cc1)C(=O)NC)C(CSC(C)C)C(=O)NO.[Na+]` (mixture of isomers) [Example 6, N-[4-(N-Hydroxyamino)-2(R)-n-propyloxymethylene-3(RS)-isopropylthiomethylenesuccinyl]-L-4'-sulfophenylalanine-N-methylamide, Monosodium Salt] displayed a Solubility in water in series [1] of over 120 mg/mL. For the same molecule, the IC50 at stromelysin (MMP-3) was 280 nM; on collagenase (MMP-1), 20 nM.
By solubility is commonly meant the dissolved amount per volume that the medium holds. Low values mean little dissolved substance, high ones much dissolved substance. In the case of `CNC(=O)[C@H](Cc1ccc(OS(=O)(=O)O)cc1)NC(=O)C(CC(=O)NO)CC(C)C` (single isomer, unassigned) [Example 1 (Isomer A), N-[4-(N-Hydroxyamino)-2(R or S)-isobutylsuccinyl]-O-sulfo-L-tyrosine-N-methylamide, Monosodium Salt], the solubility at 0.5 h in series [1] was over 240 mg/mL.
`CNC(=O)[C@H](Cc1ccc(OS(=O)(=O)O)cc1)NC(=O)C(CC(=O)NO)CC(C)C` (single isomer, unassigned) [Example 1 (Isomer B), N-[4-(N-Hydroxyamino)-2(R or S)-isobutylsuccinyl]-O-sulfo-L-tyrosine-N-methylamide, Monosodium Salt]: the half-maximal inhibitory concentration (IC50) was found to be 500 nM on stromelysin (MMP-3) and 5.1 nM at collagenase (MMP-1).
`CNC(=O)[C@H](Cc1ccc(OS(=O)(=O)O)cc1)NC(=O)[C@H](CC(C)C)C(CCCc1ccccc1)C(=O)NO` (single isomer, unassigned) [Example 3 (Isomer A), N-[4-(N-Hydroxyamino)-2(R)-isobutyl-3(R or S)-(3-phenyltrimethylene)succinyl]-O-sulfo-L-tyrosine-N-methylamide, Monosodium Salt] yielded a solubility at 0.5 h in series [1] of over 100 mg/mL.
Regarding `CNC(=O)[C@H](Cc1ccc(OS(=O)(=O)O)cc1)NC(=O)[C@H](CC(C)C)C(CCCc1ccccc1)C(=O)NO` (single isomer, unassigned) [Example 3 (Isomer B), N-[4-(N-Hydroxyamino)-2(R)-isobutyl-3(R or S)-(3-phenyltrimethylene)succinyl]-O-sulfo-L-tyrosine-N-methylamide, Monosodium Salt], the Solubility in water in series [1] (Monosodium Salt) amounted to 150 mg/mL. Further, the IC50 was 5.4 nM on stromelysin (MMP-3) and 0.4 nM on collagenase (MMP-1).
As for `CNC(=O)[C@H](Cc1ccc(S(=O)(=O)O)cc1)NC(=O)[C@H](CC(C)C)C(CSc1cccs1)C(=O)NO` (single isomer, unassigned) [Example 5 (Isomer A), N-[4-(N-Hydroxyamino)-2(R)-isobutyl-3(R or S)-(thienylthiomethylene)succinyl]-L-4'-sulfophenylalanine-N-methylamide, Monosodium Salt], in series [1], the solubility at 0.5 h is over 320 mg/mL. In addition, the IC50 at stromelysin (MMP-3) and at collagenase (MMP-1) was 8 nM in each case.
In the case of `CNC(=O)[C@H](Cc1ccc(S(=O)(=O)O)cc1)NC(=O)[C@H](CC(C)C)C(CSc1cccs1)C(=O)NO` (single isomer, unassigned) [Example 5 (Isomer B), N-[4-(N-Hydroxyamino)-2(R)-isobutyl-3(R or S)-(thienylthiomethylene)succinyl]-L-4'-sulfophenylalanine-N-methylamide, Monosodium Salt], the Solubility in water in series [1] (Monosodium Salt) is over 300 mg/mL.
Turning to `CNC(=O)[C@H](Cc1ccc(CNC(C)=N)cc1)NC(=O)[C@H](CC(C)C)C(CCCc1ccccc1)C(=O)NO` (single isomer, unassigned) [Example 10, N-[4-(N-Hydroxyamino)-2(R)-isobutyl-3(R or S)-(3-phenyltrimethylene)succinyl]-L-4'-acetimidoyliminomethylenephenylalanine-N-methylamide Monoacetate], the values for the IC50 at stromelysin (MMP-3) and at collagenase (MMP-1) were 15 nM and 7 nM, respectively.
`CNC(=O)[C@H](Cc1ccc(C(=N)N)cc1)NC(=O)[C@H](CC(C)C)C(CCCc1ccccc1)C(=O)NO` (single isomer, unassigned) [Example 17, N-[4-(N-Hydroxyamino)-2(R)-isobutyl-3(R or S)-(3-phenyltrimethylene)succinyl]-L-4'-amidinophenylalanine-N-methylamideMonoacetate]: the IC50 on stromelysin (MMP-3) and on collagenase (MMP-1) was 5 nM in each case.
Molecule `CNC(=O)[C@H](Cc1ccc(OC)cc1)NC(=O)[C@@H](CC(=O)NO)CC(C)C` [Comparative Compound 1, N-[4-(N-Hydroxyamino)-2(R)-isobutylsuccinyl]-O-methyl-L-tyrosine-N-methylamide, reference compound] yielded a solubility at 0.5 h in series [1] of under 1 mg/mL. Besides, on stromelysin (MMP-3), the IC50 turned out to be 110 nM.
The molecule `CNC(=O)[C@H](Cc1ccccc1)NC(=O)[C@H](CC(C)C)[C@H](CSc1cccs1)C(=O)NO` [Comparative Compound 3, N-[4-(N-Hydroxyamino)-2(R)-isobutyl-3(S)-thienyltiomethylenesuccinyl]-L-phenylalanine-N-methylamide, reference compound] showed a solubility at 0.5 h in series [1] of under 1 mg/mL.
Take `CNC(=O)[C@H](Cc1ccc(CNC(=N)c2ccccc2)cc1)NC(=O)[C@H](CC(C)C)C(CCCc1ccccc1)C(=O)NO` (stereo partly drawn) [Example 12, N-[4-(N-Hydroxyamino)-2(R)-isobutyl-3(RS)-(3-phenyltrimethylene)succinyl]-L-4'-benzimidoyliminomethylenephenylalanine-N-methylamide Monoacetate]: the IC50 at stromelysin (MMP-3) and on collagenase (MMP-1) was 10 nM each time.
For `CNC(=O)[C@H](Cc1ccc(CNC(C)=O)cc1)NC(=O)[C@H](CC(C)C)C(CCCc1ccccc1)C(=O)NO` (stereo partly drawn) [Example 13, N-[4-(N-Hydroxyamino)-2(R)-isobutyl-3(RS)-(3-phenyltrimethylene)succinyl]-L-4'-acetamidomethylenephenylalanine-N-methylamide], the IC50 worked out at 10 nM on stromelysin (MMP-3) and 4 nM on collagenase (MMP-1).
`CNC(=O)[C@H](Cc1ccc(CNC(=N)N)cc1)NC(=O)[C@H](CC(C)C)C(CCCc1ccccc1)C(=O)NO` (stereo partly drawn) [Example 14, N-[4-(N-Hydroxyamino)-2(R)-isobutyl-3(RS)-(3-phenyltrimethylene)succinyl]-L-4'-guanidomethylenephenylalanine-N-methylamide Monoacetate]: the IC50 came out at 10 nM on stromelysin (MMP-3) and 4 nM on collagenase (MMP-1).
With `CC(C)C[C@@H](C(=O)N[C@@H](Cc1ccc(OS(=O)(=O)O)cc1)C(=O)Nc1cccc2ccccc12)C(CCCc1ccccc1)C(=O)NO` (stereo partly drawn) [Example 18, N-[4-(N-Hydroxyamino)-2(R)-isobutyl-3(RS)-(3-phenyltrimethylene)succinyl]-O-sulfo-L-tyrosine-N-1-naphthylamide, Monosodium Salt], the IC50 on stromelysin (MMP-3) came out at 6 nM; at collagenase (MMP-1), 500 nM.
Regarding `CC(C)C[C@@H](C(=O)N[C@@H](Cc1ccc(NC(=N)N)cc1)C(=O)Nc1ccccc1)C(CCCc1ccccc1)C(=O)NO` (stereo partly drawn) [Example 19, N-[4-(N-Hydroxyamino)-2(R)-isobutyl-3(RS)-(3-phenyltrimethylene)succinyl]-L-4'-guanidophenylalanine-N-phenylamide Monoacetate], the figures for the IC50 on stromelysin (MMP-3) and on collagenase (MMP-1) were 10 nM and 8 nM, respectively.
